Our source for the melting point values is patent US20240000736A1, “INHIBITION OF PROTEIN AMYLOID AGGREGATION USING FLUORINATED BENZENESULFONAMIDES” (Vilnius University, priority 2022, published 2024).

A word on the melting point: it is the temperature, or range, at which the solid turns liquid.

On to `NS(=O)(=O)c1c(F)c(F)c(Sc2ccc(CC(=O)O)cc2)c(F)c1NC1CCCCCCCCCCC1` [MZ21-18, 2-[4-(3-(Cyclododecylamino)-2,5,6-trifluoro-4-sulfamoylphenyl)sulfanylphenyl]acetic acid], for which the melting point lay within 148 to 150 °C. With `NS(=O)(=O)c1c(F)c(F)c(SCc2ccc(C(=O)O)cc2)c(F)c1NC1CCCCCCCCCCC1` [MZ21-10, 4-[[3-(Cyclododecylamino)-2,5,6-trifluoro-4-sulfamoyl-phenyl]sulfanylmethyl]benzoic acid], the melting point is 190 to 191 °C. Take `NS(=O)(=O)c1c(F)c(F)c(Sc2ccccc2C(=O)O)c(F)c1NC1CCCCCCCCCCC1` [MZ22-10, 2-[3-(Cyclododecylamino)-2,5,6-trifluoro-4-sulfamoyl-phenyl]sulfanylbenzoic acid]: the melting point turned out to be 85 °C.

Compound `NS(=O)(=O)c1c(F)c(F)c(Sc2cccc(C(=O)O)c2)c(F)c1NC1CCCCCCCCCCC1` [MZ22-07, 3-[3-(Cyclododecylamino)-2,5,6-trifluoro-4-sulfamoyl-phenyl]sulfanylbenzoic acid] displayed a melting point of 123 to 125 °C.

`NS(=O)(=O)c1c(F)c(F)c(SCCc2ccc(C(=O)O)cc2)c(F)c1NC1CCCCCCC1` [VR16-10, 4-[2-[3-(Cyclooctylamino)-2,5,6-trifluoro-4-sulfamoyl-phenyl]sulfanylethyl]benzoic acid] yielded a melting point of 166 to 168 °C. Under `CCCCCCNc1c(F)c(SCCc2ccc(C(=O)O)cc2)c(F)c(F)c1S(N)(=O)=O` [MZ21-06, 4-[2-[2,3,6-Trifluoro-5-(hexylamino)-4-sulfamoyl-phenyl]sulfanylethyl]benzoic acid] stands 110 to 112 °C.

Turning to `CCCC(CCC)CCNc1c(F)c(SCc2ccc(C(=O)O)cc2)c(F)c(F)c1S(N)(=O)=O` [MZ21-35, 4-[[2,3,6-Trifluoro-5-(3-propylhexylamino)-4-sulfamoyl-phenyl]sulfanylmethyl]benzoic acid], the melting point was found to be 149 °C. With `NS(=O)(=O)c1c(F)c(F)c(Sc2ccc(C(=O)O)cc2)c(F)c1NC1CCCCCCCCCCC1` [MZ21-02, 4-[3-(Cyclododecylamino)-2,5,6-trifluoro-4-sulfamoyl-phenyl]sulfanylbenzoic acid], the melting point is 186 to 188 °C. Under `NS(=O)(=O)c1c(F)c(F)c(SCc2ccc(C(=O)O)cc2)c(F)c1NCC1CCCCCCC1` [MZ21-23, 4-[[3-(Cyclooctylmethylamino)-2,5,6-trifluoro-4-sulfamoyl-phenyl]sulfanylmethyl]benzoic acid] stands 157 to 158 °C. `CCC(C)C(C)CCNc1c(F)c(SCc2ccc(C(=O)O)cc2)c(F)c(F)c1S(N)(=O)=O` (stereo not drawn) [MZ21-40, 4-[[3-(3,4-Dimethylhexylamino)-2,5,6-trifluoro-4-sulfamoyl-phenyl]sulfanylmethyl]benzoic acid]: the melting point amounted to 133 °C.

As to `CCCCCCCNc1c(F)c(SCCc2ccc(C(=O)O)cc2)c(F)c(F)c1S(N)(=O)=O` [MZ21-11, 4-[2-[2,3,6-Trifluoro-5-(heptylamino)-4-sulfamoyl-phenyl]sulfanylethyl]benzoic acid], the melting point fell in the range of 66 to 68 °C. Turning to `NS(=O)(=O)c1c(F)c(F)c(SCc2ccc(C(=O)O)cc2)c(F)c1NC1CCCCCCCCC1` [MZ21-25, 4-[[3-(Cyclodecylamino)-2,5,6-trifluoro-4-sulfamoyl-phenyl]sulfanylmethyl]benzoic acid], the melting point came to 176 °C. Under `CCCCCCCCCNc1c(F)c(SCCc2ccc(C(=O)O)cc2)c(F)c(F)c1S(N)(=O)=O` [MZ21-12, 4-[2-[2,3,6-Trifluoro-5-(nonylamino)-4-sulfamoyl-phenyl]sulfanylethyl]benzoic acid] stands 66 to 67 °C; under `NS(=O)(=O)c1c(F)c(F)c(SCc2cccc(C(=O)O)c2)c(F)c1NC1CCCCCCCCCCC1` [MZ21-26, 3-[[3-(Cyclododecylamino)-2,5,6-trifluoro-4-sulfamoyl-phenyl]sulfanylmethyl]benzoic acid], 109 to 111 °C; under `CCCCCCCCNc1c(F)c(SCCc2ccc(C(=O)O)cc2)c(F)c(F)c1S(N)(=O)=O` [MZ20-07, 4-[2-[2,3,6-Trifluoro-5-(octylamino)-4-sulfamoyl-phenyl]sulfanylethyl]benzoic acid], 69 to 71 °C.
